Literature values, collected in publication PMC4853309 (Protein expression and purification, 2015).

Molecular target: NprR
Conditions: read-out: estimated binding affinity (KD); cited from earlier work

SKPDIVG [NprX7]
Kd: ~50 nM
